We go through 2 molecules from patent publication US4757064A, “Pharmacologically active bicyclic lactams” (Bayer Aktiengesellschaft, priority 1986, dated 1988).

The conditions of test [1]: animal tests; isolated from Clausena Pentaphylla (Roxb.); cited from earlier work.
Test [2] concerns CCl4 intoxicated mice. Kind of test: Hepatoprotective action in CCl4 intoxicated mice (SGPT). Type of test: in vivo, Male Kunming strain mice. As for the experimental part: Male Kunming strain mice weighing 18-22 grams were used throughout the experiments. The compounds to be tested were suspended in 5% Tween 80 and given orally by gavage. The vehicle of 5% Tween 80 solution was administered to control mice via the same route. In in vitro experiments, the compounds were dissolved in dimethylformamide and added directly into the incubation mixture.
Mice were divided into several groups. The control group was administered the vehicle. The other groups were given two doses (250 mg/kg) of compound (I, R=H), at an interval of 8 h, respectively. 10 ml/kg of 0.1% CCl4 in vegetable oil was injected ip 24 h after the second administration of the compound. The mice were fasted for 16 h and sacrificed by decapitation. SGPT and liver lipids were determined. A piece of liver was processed into sections for pathological observation.

Test [3] concerns retrograde amnesia (rat) under hypoxic conditions. Kind of test: Retrograde amnesia under hypoxic conditions (passive avoidance, dark compartment, foot shock). Type of test: in vivo, Male rats. To be noted: 100 mg/kg p.o.; 3.8% oxygen and 96.2% nitrogen; retest after 24 hours; groups of 15. The text has this:
Influence of the compound (I, R=H) on retrograde amnesia (rat) under hypoxic conditions.
The apparatus (39 cm long, 21 cm high, and 21 cm wide) consists of two compartments, one made of translucent plastic (29 cm long) and the other one painted black (10 cm long). It has a bottom of spaced metal grids which are connected to a stimulating device delivering 1.6 mA for 20 s.
Both compartments are connected via a door which can be closed.
Male rats (100-120 g body weight) will be placed individually in the large compartment and allowed to explore both compartments for 3 min.
Thereafter, the animals are placed in the small (dark) compartment, the connecting door is closed and the foot shock is delivered. After that the animals are put in an air-tight cage which is perfused by a gas mixture containing 3.8% oxygen and 96.2% nitrogen.
24 hours later the rats are placed again in the bright compartment. The observation time is 3 min.
One experiment is performed in three groups of 15 animals each:
Group A: control group, not exposed to hypoxia
Group B: control group, receiving hypoxia after first training
Group C: treated animals, receiving hypoxia after first training
Evaluation: the times the animals need to enter the dark compartment are measured in seconds. […]
The time difference between the control group B and the treated group C is calculated in percent (C-B=X%). […]

As for `C=CC(C)(C)c1cc2cc3c(cc2oc1=O)OC1(C)CCC(C(C)(C)O)OC1C3` (stereo not shown) [Clausmarins A], in test [1], the “spasmolytic activity (in words)” value was “showed spasmolytic activity”.

With `CN1C=Cc2ccccc2C(c2ccccc2)C(O)C1=O` (stereo not shown) [Compound (I, R = H)], in test [2] (250 mg/kg × 2, 8 h interval, oral by gavage, 10 ml/kg of 0.1% CCl4 ip 24 h after second dose, 9 per group, control 2270 ± 284, P <0.01), the “SGPT, X ± SE” value came out at 617 ± 166 unit %. In addition, the “effect on elevated SGPT (in words)” value in test [2] (mice intoxicated with CCl4) is “significantly decreased the elevated SGPT”. The “X, antiamnestic effect (C-B, with A-B=100%)” value in test [3] stood at 34%.
